For data set [1], the target named is PDGFRα (Homo sapiens (Human), UniProt P16234). The experiment in a line: PDGFRα kinase enzyme assay (Promega PDGFRα Kinase Enzyme System, ADP-Glo). Type of data set: biochemical. The following applies: 11-point dose response, 10,000 nM to 0.169 nM; 150 uM ATP; BLQ = below limit of quantitation; read-out: IC50 Values on PDGFRα Kinase Inhibition, IC50. The gist of the method: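 Read-out was ADP-Glo: remaining ATP depleted, ADP converted to luminescence and compared with a standard curve.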
For orientation: ADP-Glo first removes unused ATP, then detects ADP through luciferase.

Data set [2] concerns Oligodendrocyte progenitor cells (OPCs). Description: In vitro OPC differentiation assay, GPR17 expression (immunocytochemistry). The conditions noted are these: 3 μM (10× concentration, final 0.3 μM); 72 hours; fold change over vehicle.

SMILES strings stand for the structures. Bounds are passed on as bounds.

Sequence of PDGFRα (P16234 24-1089): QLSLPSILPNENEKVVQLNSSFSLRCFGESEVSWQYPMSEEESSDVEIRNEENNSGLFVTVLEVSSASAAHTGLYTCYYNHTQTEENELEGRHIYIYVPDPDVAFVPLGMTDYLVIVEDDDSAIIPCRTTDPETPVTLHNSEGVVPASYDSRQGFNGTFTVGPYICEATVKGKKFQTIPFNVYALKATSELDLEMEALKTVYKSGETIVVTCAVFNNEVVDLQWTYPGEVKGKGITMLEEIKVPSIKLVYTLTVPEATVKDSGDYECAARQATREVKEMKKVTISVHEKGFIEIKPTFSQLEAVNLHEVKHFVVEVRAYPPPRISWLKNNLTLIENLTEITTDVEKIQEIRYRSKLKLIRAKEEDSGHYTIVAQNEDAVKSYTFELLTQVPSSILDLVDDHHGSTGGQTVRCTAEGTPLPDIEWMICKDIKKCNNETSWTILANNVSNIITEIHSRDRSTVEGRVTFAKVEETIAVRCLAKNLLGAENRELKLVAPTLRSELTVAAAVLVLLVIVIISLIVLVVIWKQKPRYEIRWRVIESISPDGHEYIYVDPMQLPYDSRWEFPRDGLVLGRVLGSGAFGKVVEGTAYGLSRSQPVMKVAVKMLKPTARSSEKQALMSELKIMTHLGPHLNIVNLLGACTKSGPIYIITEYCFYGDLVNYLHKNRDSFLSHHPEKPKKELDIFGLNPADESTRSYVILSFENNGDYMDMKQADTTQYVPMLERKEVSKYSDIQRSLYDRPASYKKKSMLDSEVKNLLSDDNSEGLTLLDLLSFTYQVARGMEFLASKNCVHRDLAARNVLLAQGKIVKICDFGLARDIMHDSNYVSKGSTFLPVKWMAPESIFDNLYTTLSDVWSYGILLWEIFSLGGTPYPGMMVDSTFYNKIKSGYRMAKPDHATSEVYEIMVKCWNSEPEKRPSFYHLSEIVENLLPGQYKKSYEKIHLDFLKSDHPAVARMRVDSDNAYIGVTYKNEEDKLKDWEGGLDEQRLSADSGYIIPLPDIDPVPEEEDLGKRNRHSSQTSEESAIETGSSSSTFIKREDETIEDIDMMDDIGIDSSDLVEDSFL

Turning to `Cn1cc(-c2ccc3c(C4=CCC(CCc5ccccc5)CC4)cnn3c2)cn1` (stereo not drawn) [Compound 242, 6-(1-methyl-1H-pyrazol-4-yl)-3-(4-phenethylcyclohex-1-en-1-yl)pyrazolo[1,5-a]pyridine], in data set [1], the IC50 was above 10 µM. Besides, the “GPR17 Fold Induction (Over Vehicle; 3 μM)” value (“GPR17 Fold Induction” for short) in data set [2] is 2.24.
On to `Cc1ccc(CN2CCN(c3cnn4cc(-c5cnn(C)c5)ccc34)CC2)o1` [Compound 201, 6-(1-methyl-1H-pyrazol-4-yl)-3-(4-((5-methylfuran-2-yl)methyl)piperazin-1-yl)pyrazolo[1,5-a]pyridine], for which, in data set [1], the IC50 was above 10 µM. Besides, the “GPR17 Fold Induction” value in data set [2] was 1.30.
For `Cn1cc(-c2ccn3c(N4CCN(C(=O)NCc5ccc(C(F)(F)F)cc5)CC4)cnc3n2)cn1` [Compound 119, 4-(7-(1-methyl-1H-pyrazol-4-yl)imidazo[1,2-a]pyrimidin-3-yl)-N-(4-(trifluoromethyl)benzyl)piperazine-1-carboxamide], in that order: 1.71 µM and 8.04.
For `Cn1cc(-c2ccc3c(N4CCN(c5nsc(Cc6ccccc6)n5)CC4)cnn3c2)cn1` [Compound 154, 5-benzyl-3-(4-(6-(1-methyl-1H-pyrazol-4-yl)pyrazolo[1,5-a]pyridin-3-yl)piperazin-1-yl)-1,2,4-thiadiazole], in that order: 0.697 µM and 13.45.
The matching figures for `COCCn1cncc1-c1ccc2c(N3CCN(C(=O)OC(C)(C)C)CC3)cnn2c1` [Compound 228, tert-butyl 4-(6-(1-(2-methoxyethyl)-1H-imidazol-5-yl)pyrazolo[1,5-a]pyridin-3-yl)piperazine-1-carboxylate]: above 10 µM and 1.19.
As for `Cn1cc(-c2ccc3c(N4CCN(c5ncc(Cc6ccccc6)cn5)CC4)nnn3c2)cn1` [Compound 9, 3-[4-(5-benzylpyrimidin-2-yl)piperazin-1-yl]-6-(1-methyl-1H-pyrazol-4-yl)[1,2,3]triazolo[1,5-a]pyridine], in data set [1], the IC50 was above 10 µM. Further, the “GPR17 Fold Induction” value in data set [2] was found to be 1.88.
For `Cc1cnc(COC(=O)N2CCN(c3cnn4cc(-c5cnn(C)c5)ccc34)CC2)o1` [Compound 199, (5-methyloxazol-2-yl)methyl 4-(6-(1-methyl-1H-pyrazol-4-yl)pyrazolo[1,5-a]pyridin-3-yl)piperazine-1-carboxylate], in that order: 1.24 µM and 4.08.
For `Cn1cc(-c2ccc3c(N4CCN(c5ncc(C(F)(F)c6ccc(F)cc6)cn5)CC4)cnn3c2)cn1` [Compound 262, 3-(4-(5-(difluoro (4-fluorophenyl)methyl)pyrimidin-2-yl)piperazin-1-yl)-6-(1-methyl-1H-pyrazol-4-yl)pyrazolo[1,5-a]pyridine], in that order: above 10 µM and 2.61.
For `CN1CCC(COC(=O)N2CCN(c3cnn4cc(-c5cnn(C)c5)ccc34)CC2)CC1` [Compound 20, (1-methylpiperidin-4-yl)methyl 4-[6-(1-methyl-1H-pyrazol-4-yl)pyrazolo[1,5-a]pyridin-3-yl]piperazine-1-carboxylate], in that order: above 10 µM and 0.58.
In the case of `Cn1cc(-c2ccc3c(N4CCN(c5ncc(CCCc6ccccc6)cn5)CC4)cnn3c2)cn1` [Compound 183, 6-(1-methyl-1H-pyrazol-4-yl)-3-(4-(5-(3-phenylpropyl)pyrimidin-2-yl)piperazin-1-yl)pyrazolo[1,5-a]pyridine], in data set [1], the 50% inhibitory concentration (IC50) was found to be 0.815 µM. In addition, the “GPR17 Fold Induction” value in data set [2] is given as 5.74.
The matching figures for `COc1ccc(CN2CCN(c3cnn4cc(-c5cnn(C)c5)ccc34)CC2)cc1` [Compound 253, 3-[4-(4-methoxybenzyl)piperazin-1-yl]-6-(1-methyl-1H-pyrazol-4-yl)pyrazolo[1,5-a]pyridine]: above 10 µM and 0.97.
For `Cn1cc(-c2ccc3c(NCCCNc4ncc(Cc5ccccc5)cn4)cnn3c2)cn1` [Compound 124, N^1-(5-benzylpyrimidin-2-yl)-N^3-(6-(1-methyl-1H-pyrazol-4-yl)pyrazolo[1,5-a]pyridin-3-yl)propane-1,3-diamine], in that order: above 10 µM and 1.47.
For `[2H]c1c([2H])c([2H])c(C([2H])([2H])c2cnc(N3CCN(c4cnn5cc(-c6cnn(C)c6)ccc45)CC3)nc2)c([2H])c1[2H]` [Compound 82], in that order: 2.51 µM and 6.50.
Consider `CC(C)(C)OC(=O)N1CCN(c2cnc3cc(C4CCOC4)ncn23)CC1` (stereo not drawn) [Compound 90, tert-butyl 4-(7-(tetrahydrofuran-3-yl)imidazo[1,2-c]pyrimidin-3-yl)piperazine-1-carboxylate], for which, in data set [1], the concentration for half-maximal inhibition (IC50) was above 10 µM. For the same compound, the “GPR17 Fold Induction” value in data set [2] is 0.92.
The matching figures for `Cn1cc(-c2ccc3c(N4CCN(c5ncc(S(=O)(=O)c6ccccc6)cn5)CC4)cnn3c2)cn1` [Compound 186, 6-(1-methyl-1H-pyrazol-4-yl)-3-(4-(5-(phenylsulfonyl)pyrimidin-2-yl)piperazin-1-yl)pyrazolo[1,5-a]pyridine]: above 10 µM and 1.26.
For `C[C@@H](OC(=O)N1CCN(c2cnc3cc(-c4cnn(C)c4)ncn23)CC1)c1ccccc1` [Compound 115, (R)-1-phenylethyl 4-(7-(1-methyl-1H-pyrazol-4-yl)imidazo[1,2-c]pyrimidin-3-yl)piperazine-1-carboxylate], in that order: above 10 µM and 2.46.
The matching figures for `Cn1cc(-c2ccc3c(N4CCN(c5ncc(Cc6ncco6)cn5)CC4)cnn3c2)cn1` [Compound 170, 2-((2-(4-(6-(1-methyl-1H-pyrazol-4-yl)pyrazolo[1,5-a]pyridin-3-yl)piperazin-1-yl)pyrimidin-5-yl)methyl)oxazole]: 2.38 µM and 3.96.
For `Cn1cc(-c2ccc3c(N4CC(c5ncc(Cc6ccccc6)cn5)C4)cnn3c2)cn1` [Compound 72, 3-[3-(5-benzylpyrimidin-2-yl)azetidin-1-yl]-6-(1-methyl-1H-pyrazol-4-yl)pyrazolo[1,5-a]pyridine], the IC50 in data set [1] worked out at 2.97 µM. For the same compound, the “GPR17 Fold Induction” value in data set [2] is given as 4.75.
Take `Cn1cc(-c2ccc3c(N4CCN(S(=O)(=O)NCc5ccccc5)CC4)cnn3c2)cn1` [Compound 159, N-benzyl-4-[6-(1-methyl-1H-pyrazol-4-yl)pyrazolo[1,5-a]pyridin-3-yl]piperazine-1-sulfonamide]: the IC50 in data set [1] was determined as 0.45 µM. The “GPR17 Fold Induction” value in data set [2] turned out to be 3.62.
For `COc1cccc(-c2ccc3c(N4CCN(C(=O)OC(C)(C)C)CC4)cnn3c2)c1` [Compound 211, tert-butyl 4-(6-(3-methoxyphenyl)pyrazolo[1,5-a]pyridin-3-yl)piperazine-1-carboxylate], in that order: 7.38 µM and 2.54.
For `Cn1cc(-c2ccc3c(N4CCNCC4)cnn3c2)cn1` [Compound 12, 1-[6-(1-methylpyrazol-4-yl)pyrazolo[1,5-a]pyridin-3-yl]piperazine], in that order: above 10 µM and 0.68.

By IC50 is commonly meant the concentration needed to halve the response being measured.

The values above are taken from patent US20250129067A1 (Progentos Therapeutics, Inc., priority 2021, published 2025).
